Source: US20200270225A1, “Chiral Diacylhydrazine Ligands for Modulating the Expression of Exogenous Genes via an Ecdysone Receptor Complex” (Intrexon Corporation, priority 2007, published 2020)

Assays:
[1] = Dynamic vapor sorption analysis; format: physicochemical; settings: for weight loss under desiccant condition: 20% RH; for weight gain: 70% RH, after dehydration
Text: At 70% RH, the weight gain is 6.3% for the R enantiomer and 6.2% for the racemate (data not shown), indicating moderate hygroscopicity for both materials.

[2] = Solubility and appearance of 20 mg/mL preparations in Labrasol; format: physicochemical; settings: sonicated at 25-28° C.
Protocol: These Labrasol dosing preparations utilized micronized R enantiomer, but non-micronized racemate. To address the possibility that the non-micronized racemate specimen might bias its dissolution rate in Labrasol, an independent experiment was performed. In this experiment, the solubility and appearance of 20 mg/mL preparations of micronized and non-micronized racemate were examined. Micronized racemate (lot REH-28-9-1/PYAP-2-8-2-2M), non-micronized racemate (lot # PYAP-2-8-2-2), and micronized R enantiomer (lot # REH-28-4-2) were each suspended in Labrasol, swirled by hand, and then sonicated in a Branson 2100 table top sonicator at 25-28° C. for 3×5 min intervals and a 1×10 min interval, interspersed with swirling by hand. […] By visual inspection, the quantity of undissolved material in micronized and non-micronized racemate samples was substantially the same. […] Some larger crystal fragments remained in the non-micronized sample. Since both micronized and non-micronized samples of racemate result in similar amounts of undissovled material, it appears that the major difference between R enantiomer and racemate Labrasol preparations is the intrinsic solubility rather than the starting particle size of the solute.

[3] = test system: RheoSwitch® Therapeutic System (RTS) gene expression; assay: In vivo induction of RTS SEAP reporter in electroporated mice; parameters: species or system C57BL6 mice; settings: intraperitoneal injection 26 nmol/mouse; monitored seventeen days
Text: The wild-type D, E, and F domains from spruce budworm Choristoneura fumiferana EcR (“CfEcR-DEF”; SEQ ID NO: 1) were mutated [V107 (gtt)→1107 (att) and Y127 (tac)→E127 (gag)] and fused to a GAL4 DNA binding domain (“Gal4DBD1-147”; SEQ ID NO: 2). Helices 1 through 8 of the EF domains from Homo sapiens RXRPβ (“HsRXRβ-EF”; nucleotides 1-465 of SEQ ID NO: 4) and helices 9 through 12 of the EF domains of Locusta migratoria Ultraspiracle Protein (“LmUSP-EF”; nucleotides 403-630 of SEQ ID NO: 5) were fused to the transactivation domain from VP16 (“VP16AD”; SEQ ID NO: 6), which regulates a reporter gene human secreted alkaline phosphatase (“SEAP”, SEQ ID NO: 12) that was placed under the control of a 6xGAL4 response element (SEQ ID NO: 13) and a transthyretin promoter (SEQ ID NO: 14). Each element of the gene switch was on a separate plasmid. Receptor expression was under the control of a CMV promoter (SEQ ID NO: 15). Induction was evaluated by the amount of reporter protein expressed in the presence of ligand.
SEAP expression in serum of mice was evaluated after electroporation of the gene switch into mouse quadriceps. Mice were anesthetized with 2 μL/g of a mixture of ketamine (100 mg/mL) and xylazine (20 mg/mL). Animals were then shaved, DNA vectors injected into the muscle in a volume of 2×50 μL polyglutamic acid (12 mg/mL water), electrode conductivity gel applied, and an electrode caliber (1 cm×1 cm; model 384) was placed on hind leg. The muscle was electroporated with 200 V/cm, 8 times, for 20 msec/pulse, at 1 sec time intervals. The transverse electrical field direction was reversed after the animals received half of the pulses. Electroporation was performed with an ECM 830 electroporator from BTX Molecular Delivery Systems.
[…] In other experiments the concentration of ligand was decreased to 26 nmol/50 μL of DMSO/mouse. […]
Mouse serum was obtained by centrifugation of blood acquired by retroorbital bleeding with a small glass capillary tube. SEAP quantification was determined using a Clontech Great Escape chemiluminescence kit and by comparison with the Clontech SEAP standard. […]

[4] = Solubility in pharmaceutical excipients, Assay 2 (heating, cooling, seeding); format: physicochemical; settings: supersaturated solutions seeded with crystalline substance, room temperature
Protocol: For each excipient, the lowest concentration at which R enantiomer or racemate of 2-Ethyl-3-methoxy-benzoic acid N′-(1-tert-butyl-butyl)-N′-(3,5-dimethyl-benzoyl)-hydrazide is insoluble in the FIG. 9 assay was identified. Suspensions of both materials at this same concentration were prepared in vials. Each sample was stirred at room temperature for ≤2.5 hr (treatment 1). As a separate experiment, test article/excipient combinations were heated in an aluminum block at 90° C. for 5 minutes, or longer as needed; indicated in FIG. 10, and allow to cool to room temperature, and seeded with a tiny amount of the same micronized substance. (treatment 2). The physical appearance was recorded at 72 hr or the indicated time (FIG. 10). In all cases, no change in color was observed. This solubility assay operates from a fully dissolved condition in which initial particle size and morphic form are irrelevant. […] Photos were taken of preparations in clear glass vials (R enantiomer under the conditions of assay 1 without heating to 90° C., and racemate after 90° C. treatment, cooling and seeding, not shown).

| SMILES | weight loss under desiccant condition [1] | weight gain [1] [%] | solubility and appearance in Labrasol [2] | RTS gene reporter (SEAP) expression in mouse serum [3] | physical appearance of excipient solutions after seeding [4] |
| --- | --- | --- | --- | --- | --- |
| CCCC(N(NC(=O)c1cccc(OC)c1CC)C(=O)c1cc(C)cc(C)c1)C(C)(C)C (racemic) [rac-1, rac-2-ethyl-3-methoxy-benzoic acid N′-(1-tert-butyl-butyl)-N′-(3,5-dimethyl-benzoyl)-hydrazide] | did not show any significant weight loss | 6.2 | remained cloudy with suspended fine particles | induces modest RTS gene reporter expression | precipitation/crystallization upon seeding |
| CCC[C@@H](N(NC(=O)c1cccc(OC)c1CC)C(=O)c1cc(C)cc(C)c1)C(C)(C)C [Example 1, (R)-3,5-Dimethyl-benzoic Acid N-(1-tert-butyl-butyl)-N′-(2-ethyl-3-methoxy-benzoyl)-hydrazide] | 0.9 % of total weight | 6.3 | readily dissolved | induces substantial RTS gene reporter expression | remains fully dissolved |
